The source of these data is PubChem BioAssay AID2060615 (Molecular Pharmacology Branch, DTP, NCI, 2025).

This assay relates to 496974-208-R-J2-PDC complex spheroids, growth % test/control. Nature of the assay: Anticancer human tumor 496974-208-R-J2-PDC patient-derived pancreatic carcinoma cell line growth inhibition [CLK]. Conditions: for viability, T/C: stronger effect = lower value. An outline of the steps: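 Patient-derived tumor cells grown as complex spheroids with HUVEC endothelial cells and mesenchymal stem cells, treated with drug combinations. Concentrations descend in half-log steps from near clinical Cmax, or from 10 microM if Cmax unknown.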

The mark [1] stands for this setting: curve of first compound, second compound 0.0316 µM.
Where [2] appears, read: curve of first compound, second compound 0.1 µM.
Where [3] appears, read: curve of first compound, second compound 0.316 µM.
[4] abbreviates: curve of first compound, second compound 1 µM.
Setting [5] is: curve of first compound, second compound 3.16 µM.
Setting [6] is: curve of first compound, second compound 10 µM.
Where [7] appears, read: second compound 0.0316 µM, first compound 0.0316 µM.
The mark [8] stands for this setting: second compound 0.0316 µM, first compound 0.1 µM.
Setting [9] is: second compound 0.0316 µM, first compound 0.316 µM.
Setting [10] is: second compound 0.0316 µM, first compound 1 µM.
[11] abbreviates: second compound 0.1 µM, first compound 0.0316 µM.
Setting [12] is: second compound 0.1 µM, first compound 0.1 µM.
Setting [13] is: second compound 0.1 µM, first compound 0.316 µM.
[14] abbreviates: second compound 0.1 µM, first compound 1 µM.
Setting [15] is: second compound 0.316 µM, first compound 0.0316 µM.
Setting [16] is: second compound 0.316 µM, first compound 0.1 µM.
Where [17] appears, read: second compound 0.316 µM, first compound 0.316 µM.
[18] abbreviates: second compound 0.316 µM, first compound 1 µM.
Where [19] appears, read: second compound 1 µM, first compound 0.0316 µM.
Setting [20] is: second compound 1 µM, first compound 0.1 µM.
Where [21] appears, read: second compound 1 µM, first compound 0.316 µM.
The mark [22] stands for this setting: second compound 1 µM, first compound 1 µM.
The mark [23] stands for this setting: second compound 3.16 µM, first compound 0.0316 µM.
The mark [24] stands for this setting: second compound 3.16 µM, first compound 0.1 µM.
[25] abbreviates: second compound 3.16 µM, first compound 0.316 µM.
Setting [26] is: second compound 3.16 µM, first compound 1 µM.
The mark [27] stands for this setting: second compound 10 µM, first compound 0.0316 µM.
Setting [28] is: second compound 10 µM, first compound 0.1 µM.
Where [29] appears, read: second compound 10 µM, first compound 0.316 µM.
Where [30] appears, read: second compound 10 µM, first compound 1 µM.

Several values for one entry are separate records, joined by “and”; a condition that tells them apart may be missing. Equal entries are not always repeated.
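Also: spheroids exposed to the drugs for 7 days before readout.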
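For viability, T/C in this document: 100% = DMSO vehicle control wells.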

As usually defined, the viability, T/C is the result in the treated group divided by that in the control group, in per cent. In general, IC50 refers to the midpoint of a concentration-inhibition curve. On to `CC(C)CC(NC(=O)C(Cc1ccccc1)NC(=O)c1cnccn1)B(O)O` (stereo unspecified), for which the viability, T/C is 99.9% (compound 0.000949 µM); 63.8% (compound 0.003 µM); 0.44% (compound 0.00949 µM); 0.67% (compound 0.03 µM); 0.24% (compound 0.0949 µM); 0.27% (compound 0.3 µM). The IC50 (curve of compound) was determined as 3.85 nM.

Consider `CCc1c2c(nc3ccc(O)cc13)-c1cc3c(c(=O)n1C2)COC(=O)[C@]3(O)CC`, for which the viability, T/C was 67.2% and 61.3% (compound 0.00316 µM); 32.4% and 47.9% (compound 0.01 µM); 25.7% and 35.4% (compound 0.0316 µM); 17.4% and 23.2% (compound 0.1 µM); 9.88% and 12.9% (compound 0.316 µM); 2.2% and 3.2% (compound 1 µM). Where the note is “curve of compound”, the IC50 is 6.04 nM and 8.48 nM.

As for `C=CC(=O)Nc1cc(Nc2nccc(-c3cn(C)c4ccccc34)n2)c(OC)cc1N(C)CCN(C)C`, the viability, T/C reads like this: (compound 0.000949 µM) 102% and 103%; (compound 0.003 µM) 99.3% and 105%; (compound 0.00949 µM) 86% and 93.1%; (compound 0.03 µM) 85.4% and 94.9%; (compound 0.0949 µM) 98.1% and 88.5%; (compound 0.3 µM) 70.9% and 70.3%. Besides, under “curve of compound”, the IC50 was greater than 300 nM.

In the case of `CCN1CCN(Cc2ccc(Nc3ncc(F)c(-c4cc(F)c5nc(C)n(C(C)C)c5c4)n3)nc2)CC1`, the viability, T/C by setting is: (compound 0.00316 µM) 102% and 112%; (compound 0.01 µM) 93.9% and 90.8%; (compound 0.0316 µM) 87.1% and 90.3%; (compound 0.1 µM) 82.4% and 97.8%; (compound 0.316 µM) 90.3% and 92.8%; (compound 1 µM) 96.5% and 103%. The IC50 (curve of compound) was greater than 1000 nM.

With `CCN1CCN(Cc2ccc(Nc3ncc(F)c(-c4cc(F)c5nc(C)n(C(C)C)c5c4)n3)nc2)CC1` + CN1CCN(c2cc(C(=O)Nc3cc4cc(-c5cnn(C)c5)ccc4cn3)ccn2)CC1, the IC50 by setting is: under setting [1], greater than 1000 nM; under setting [2], greater than 1000 nM; under setting [3], less than 3.16 nM; under setting [4], less than 3.16 nM; under setting [5], less than 3.16 nM; under setting [6], less than 3.16 nM. For the same molecule, the viability, T/C runs as follows: (second compound 0.0316 µM, first compound 0.00316 µM) 90.4%; (second compound 0.0316 µM, first compound 0.01 µM) 87.9%; under setting [7], 78.6%; under setting [8], 81%; under setting [9], 76.2%; under setting [10], 87.7%. For the same molecule, the viability, T/C (second compound 0.1 µM, first compound 0.00316 µM) is 79.5%; the viability, T/C (second compound 0.1 µM, first compound 0.01 µM) was 73%; the viability, T/C under setting [11] was 72.8%; the viability, T/C under setting [12] is 72.9%; the viability, T/C under setting [13] is 68.2%; the viability, T/C under setting [14] is 70.6%. For the same molecule, the viability, T/C reads like this: (second compound 0.316 µM, first compound 0.00316 µM) 6.01%; (second compound 0.316 µM, first compound 0.01 µM) 10.2%; under setting [15], 8.8%; under setting [16], 11.3%; under setting [17], 13.7%; under setting [18], 9.83%. In addition, the viability, T/C is, setting by setting: (second compound 1 µM, first compound 0.00316 µM) 0.34%; (second compound 1 µM, first compound 0.01 µM) 0.41%; under setting [19], 0.41%; under setting [20], 0.39%; under setting [21], 0.77%; under setting [22], 2.79%. Moreover, the viability, T/C was 0.34% (second compound 3.16 µM, first compound 0.00316 µM); 1.89% (second compound 3.16 µM, first compound 0.01 µM); 1.33% under setting [23]; 0.51% under setting [24]; 1.22% under setting [25]; 4.6% under setting [26]. Moreover, the viability, T/C is 0.22% (second compound 10 µM, first compound 0.00316 µM); 0.34% (second compound 10 µM, first compound 0.01 µM); 0.36% under setting [27]; 0.29% under setting [28]; 1.36% under setting [29]; 2.46% under setting [30].

On to `O=C(c1cc(Cc2n[nH]c(=O)c3ccccc23)ccc1F)N1CCN(C(=O)C2CC2)CC1`, for which the viability, T/C (compound 0.0316 µM) was 99.1%; the viability, T/C (compound 0.1 µM) was 85.5%; the viability, T/C (compound 0.316 µM) was 94.7%; the viability, T/C (compound 1 µM) was 98.4%; the viability, T/C (compound 3.16 µM) is 95.2%; the viability, T/C (compound 10 µM) is 86.7%. Also, the IC50 (curve of compound) is greater than 10000 nM.

For the molecule `COc1ccc([C@@H](O)c2cc(-c3ncnc4cc(N5CCOCC5)ccc34)c(F)cc2Cl)nn1` + CNC(=O)c1ccc(Nc2nc(OC3CCCC3)c3c(-c4ccc5nc(C)oc5c4)c[nH]c3n2)c(OC)c1, the IC50 worked out at 7280 nM under setting [1]; 6160 nM under setting [2]; 2600 nM under setting [3]; 1710 nM under setting [4]; 1360 nM under setting [5]; 306 nM under setting [6]. In addition, the viability, T/C under setting [7] was 102%; the viability, T/C under setting [8] is 88.6%; the viability, T/C under setting [9] was 89.4%; the viability, T/C under setting [10] was 88.7%; the viability, T/C (second compound 0.0316 µM, first compound 3.16 µM) was 76.1%; the viability, T/C (second compound 0.0316 µM, first compound 10 µM) is 40.1%. The viability, T/C under setting [11] was 78.5%; the viability, T/C under setting [12] is 75.8%; the viability, T/C under setting [13] is 83.9%; the viability, T/C under setting [14] is 75.9%; the viability, T/C (second compound 0.1 µM, first compound 3.16 µM) was 62.3%; the viability, T/C (second compound 0.1 µM, first compound 10 µM) was 41.1%. The viability, T/C runs as follows: under setting [15], 71%; under setting [16], 85.1%; under setting [17], 68.9%; under setting [18], 67.1%; (second compound 0.316 µM, first compound 3.16 µM) 46.5%; (second compound 0.316 µM, first compound 10 µM) 20.4%. Besides, the viability, T/C under setting [19] is 72%; the viability, T/C under setting [20] was 64.2%; the viability, T/C under setting [21] is 65.1%; the viability, T/C under setting [22] is 58.1%; the viability, T/C (second compound 1 µM, first compound 3.16 µM) is 41.6%; the viability, T/C (second compound 1 µM, first compound 10 µM) is 23.2%. For the same molecule, the viability, T/C under setting [23] is 62.9%; the viability, T/C under setting [24] was 68%; the viability, T/C under setting [25] is 59.5%; the viability, T/C under setting [26] was 56.3%; the viability, T/C (second compound 3.16 µM, first compound 3.16 µM) is 35.6%; the viability, T/C (second compound 3.16 µM, first compound 10 µM) was 17.9%. Also, the viability, T/C under setting [27] is 59.7%; the viability, T/C under setting [28] was 55.8%; the viability, T/C under setting [29] was 50.2%; the viability, T/C under setting [30] is 42.9%; the viability, T/C (second compound 10 µM, first compound 3.16 µM) was 27.3%; the viability, T/C (second compound 10 µM, first compound 10 µM) was 14.2%.

Consider `CC1(C)CCC(CN2CCN(c3ccc(C(=O)NS(=O)(=O)c4ccc(NCC5CCOCC5)c([N+](=O)[O-])c4)c(Oc4cnc5[nH]ccc5c4)c3)CC2)=C(c2ccc(Cl)cc2)C1`, for which the viability, T/C (compound 0.0316 µM) is 115% and 95.7%; the viability, T/C (compound 0.1 µM) was 89% and 88.2%; the viability, T/C (compound 0.316 µM) was 99% and 101%; the viability, T/C (compound 1 µM) was 99.4% and 99.5%; the viability, T/C (compound 3.16 µM) was 96.8% and 94.7%; the viability, T/C (compound 10 µM) is 43.4% and 40.6%. Besides, the IC50 (curve of compound) was 8670 nM and 8190 nM.
